Laboratory results published in publication PMC9260667, “Thioredoxin Reductase Inhibitors as Potential Antitumors: Mercury Compounds Efficacy in Glioma Cells” (Frontiers in Molecular Biosciences, 2022).

Tests used:
Trx [1] = biological target: T1, Trx (Mus musculus, UniProt P97493); format: cell-based; conditions: mitochondria, GL261 exposed 24 h
T1 construct: These lysates were compared to a control group and used to quantify TrxR and Trx activity and expression; These fractions were used to quantify TrxR and Trx activity and expression; endogenous in cells; host or cells: GL261 mouse glioma cells (whole lysate, cytosolic and mitochondrial fractions)
Description: (§1) Total cell lysates were prepared according to previous protocols ([Branco et al., 2014]). 1 × 10^6 cells were plated in […] culture dishes incubated at 37°C until reaching 70–80% confluence. At this point, the culture medium was refreshed and TmHg and EtHg (0.5; 1; 2 µM) were added and incubated at 37°C for 24 h, after which cells were collected by trypsinization and washed with PBS 1x. Subsequently, the pellet was resuspended in lysis buffer (25 mM TrisCl, pH 7.5; 100 mM NaCl; 2.5 mM EDTA; 2.5 mM EGTA; 20 mM NaF, 1 mM sodium orthovanadate, 20 mM sodium pyrophosphate; 20 mM of sodium β-glycerophosphate, 0.5% Triton X-100, and 1 tablet of protease inhibitor cocktail per 10 ml; Roche) vortexed and frozen at −20°C. These lysates were compared to a control group and used to quantify TrxR and Trx activity and expression as described below.
(§2) To obtain the mitochondrial and cytosolic fractions, after exposure to Hg compounds cells were washed and suspended in mitochondrial isolation buffer (210 mM mannitol, 70 mM sucrose, 1 mM EDTA, 10 mM Hepes–NaOH, and pH 7.5), containing protease inhibitor cocktail (Roche). Cells were disrupted with a Teflon pestle and then centrifuged at 600 g for 10 min at 4°C. The resulting nuclear pellets were discarded, and the supernatant was further centrifuged at 13,000 g and 4°C for 15 min, to obtain the mitochondrial pellets and the supernatant soluble fraction. Mitochondrial pellets were treated with cell lysis buffer as described above for whole-cell lysates and the supernatant fraction was further centrifuged at 100,000 g and 4°C for 1 h, to produce the cytosolic fraction ([Branco et al., 2014]). These fractions were used to quantify TrxR and Trx activity and expression as described below.
(§3) The enzymatic activity of TrxR and Trx was determined according to the insulin end-point assay described by [Arnér and Holmgren (2000)] with modifications ([Branco et al., 2014]).
(§4) In parallel, control wells were prepared to contain the same reagents previously mentioned apart from Trx. After the incubation period, 250 µL of a 1 mM DTNB solution in 6 M guanidine-HCL (pH 8.0) was added to wells, and absorbance was measured at 412 nm in a microplate reader (Zenyth 3100, Anthos Labtec Instruments). […] The same procedure was done for the determination of Trx activity, but the samples were incubated with 100 nM of recombinant rat TrxR (IMCO Corp, Sweden) instead of Trx ([Branco et al., 2014]).

Trx [2] = biological target: T2, Trx (Mus musculus, UniProt P10639); format: cell-based; conditions: cytosol, GL261 exposed 24 h
T2 construct: These lysates were compared to a control group and used to quantify TrxR and Trx activity and expression; These fractions were used to quantify TrxR and Trx activity and expression; endogenous in cells; host or cells: GL261 mouse glioma cells (whole lysate, cytosolic and mitochondrial fractions)
Description: as §1, §2, §3, §4

T2 sequence (P10639 whole entry): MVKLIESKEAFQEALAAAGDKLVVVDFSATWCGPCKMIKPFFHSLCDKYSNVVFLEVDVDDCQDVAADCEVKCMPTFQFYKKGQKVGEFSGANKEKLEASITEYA
T1 sequence (P97493 60-166): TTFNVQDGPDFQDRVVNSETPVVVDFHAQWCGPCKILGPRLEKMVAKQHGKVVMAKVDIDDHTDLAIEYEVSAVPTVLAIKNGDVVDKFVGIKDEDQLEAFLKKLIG

C[CH2][Hg][S]c1ccccc1C(=O)[O-].[Na+] [TmHg, thimerosal]
IC50 (Trx [1]): 1.6 µM | IC50 (Trx [2]): 1.2 µM
